After the bases stand the sugars from the 5' end (letter, count) and the backbone: PS all phosphorothioate, else s phosphorothioate and o phosphodiester by linkage. Methylation of C is not given here. l = locked nucleic acid (LNA); d = 2'-deoxy (DNA)

Our source for the target mRNA inhibition values is the OligoGym collection.

The series has as its target SNHG14. The settings on record: ASO.
[1] abbreviates: Mouse Primary Neuronal Cell, 0.005 µM.

For “CAAAGATCATTCTCAACA (sugars lllldldddddddlddll, PS)”, the target mRNA inhibition (Human Neuronal Cell, 7.5 µM) was 63%.

On to “TATACCTTTCTTTAACCCTT (sugars l1 d15 l1 d1 l2, PS)”, for which the target mRNA inhibition (Human Neuronal Cell, 7.5 µM) came to 58%.

Regarding “TTTACACTTAATTATACTTC (sugars llldlddddddddlddllll, PS)”, the target mRNA inhibition (Human Neuronal Cell, 7.5 µM) stood at 55%.

For ACTCCTAAGAATTACA (sugars l4 d10 l2, PS), the target mRNA inhibition is, setting by setting: (Human Neuronal Cell, 0.2 µM) 34%; (Human Neuronal Cell, 1 µM) 34%.

Take AAACTACCCTGCACAA (sugars l3 d10 l3, PS): the target mRNA inhibition by setting is: (Human Neuronal Cell, 0.2 µM) 22%; (Human Neuronal Cell, 1 µM) 39%.

With “AAAATTATTTATACACCATC (sugars lldddllddddddllldlll, PS)”, for the setting “Human Neuronal Cell, 7.5 µM”, the target mRNA inhibition is 63%.

As for “GTTTATACCCTTTCCAAT (sugars l1 d13 l4, PS)”, under “Human Neuronal Cell, 7.5 µM”, the target mRNA inhibition amounted to 59%.

As for ATAAGCTTACCTCATA (sugars l2 d10 l4, PS), the target mRNA inhibition turned out to be 62% (Human Neuronal Cell, 0.2 µM) and 68% (Human Neuronal Cell, 1 µM).

For the sequence “CTTTCCATTTATTTCCATTT (sugars ldldddldddddddddldll, PS)”, the target mRNA inhibition (Human Neuronal Cell, 7.5 µM) came to 54%.

As to “GAAAATCTCAACTACCATT (sugars llddldddddddlddddll, PS)”, the target mRNA inhibition (Human Neuronal Cell, 7.5 µM) was 52%.

Regarding CCACCTTAAGTAACAT (sugars l3 d10 l3, PS), the target mRNA inhibition by setting is: (Human Neuronal Cell, 0.2 µM) 30%; (Human Neuronal Cell, 1 µM) 43%.

Take “CCTACATCTCATACTTGC (sugars l3 d12 l3, PS)”: the target mRNA inhibition was -39% (Human Neuronal Cell, 0.2 µM); -21% (Human Neuronal Cell, 1 µM); -27% (Human Neuronal Cell, 5 µM).

Take “AGTTCTACTATACTTTCC (sugars l1 d4 l1 d10 l2, PS)”: the target mRNA inhibition (Human Neuronal Cell, 7.5 µM) stood at 49%.

As for “TCTGTATACACCATCCCA (sugars lddddlddddddddldll, PS)”, the target mRNA inhibition (Human Neuronal Cell, 7.5 µM) is 61%.

CTCCTTTATGACTCCA (sugars l3 d11 l2, PS): the target mRNA inhibition by setting is: (Human Neuronal Cell, 0.2 µM) 50%; (Human Neuronal Cell, 1 µM) 56%.

Consider “TATACCTTTCTTTAACCCTT (sugars lddldlddddddddddldll, PS)”, for which, for the setting “Human Neuronal Cell, 7.5 µM”, the target mRNA inhibition was determined as 62%.

For “ATATTGATTCAATTCCC (sugars l1 d1 l3 d10 l2, PS)”, where the note is “Human Neuronal Cell, 7.5 µM”, the target mRNA inhibition stood at 70%.

Regarding “TAAAATTATTTATACACCAT (sugars lldddldddddddldlllll, PS)”, the target mRNA inhibition (Human Neuronal Cell, 7.5 µM) came to 46%.

Take CCTACATCTCATACTT (sugars l3 d10 l3, PS): the target mRNA inhibition was -11% (Human Neuronal Cell, 0.2 µM); 3% (Human Neuronal Cell, 1 µM); 13% (Human Neuronal Cell, 5 µM); 93.4% under setting [1].

“AAATCTCAACTACCATTTTT (sugars lldlldldddddddldddll, PS)”: for the setting “Human Neuronal Cell, 7.5 µM”, the target mRNA inhibition turned out to be 53%.

Turning to “CCATTATTTCTTAAATA (sugars l4 d11 l2, PS)”, the target mRNA inhibition (Human Neuronal Cell, 0.2 µM) is -8% and the target mRNA inhibition (Human Neuronal Cell, 1 µM) turned out to be 8%.

Regarding “TATCTCATGACCACCTA (sugars l2 d12 l3, PS)”, the target mRNA inhibition reads like this: (Human Neuronal Cell, 0.2 µM) 43%; (Human Neuronal Cell, 1 µM) 52%.

On to “TTATAGCCATTCTATCT (sugars llddlddddddlddlll, PS)”, for which, for the setting “Human Neuronal Cell, 7.5 µM”, the target mRNA inhibition worked out at 39%.

“TTTATTTCCATTTATTTTC (sugars lllddldddddddllldll, PS)”: the target mRNA inhibition (Human Neuronal Cell, 7.5 µM) worked out at 51%.

As for ACCACCTAAGACCTCA (sugars l2 d11 l3, PS), the target mRNA inhibition by setting is: (Human Neuronal Cell, 0.2 µM) 45%; (Human Neuronal Cell, 1 µM) 44%.

As for “TTTTTTTCTTACTATCTTCA (sugars l2 d3 l1 d12 l2, PS)”, the target mRNA inhibition (Human Neuronal Cell, 7.5 µM) came out at 14%.

For TTATTTATACACCATC (sugars l2 d10 l4, PS), the target mRNA inhibition is, setting by setting: (Human Neuronal Cell, 0.2 µM) 78%; (Human Neuronal Cell, 1 µM) 74%.

Turning to “TTGATTCAATTCCCTTA (sugars l2 d10 l1 d1 l3, PS)”, the target mRNA inhibition (Human Neuronal Cell, 7.5 µM) is 68%.

Take TCTTCAAGAATTCTCT (sugars l2 d10 l4, PS): the target mRNA inhibition is, setting by setting: (Human Neuronal Cell, 0.2 µM) 44%; (Human Neuronal Cell, 1 µM) 46%.

Take ACCCATTTCTAACATT (sugars l4 d10 l2, PS): the target mRNA inhibition runs as follows: (Human Neuronal Cell, 0.2 µM) 29%; (Human Neuronal Cell, 1 µM) 40%.

As for TCCATAGAATTCTTCA (sugars l4 d10 l2, PS), the target mRNA inhibition reads like this: (Human Neuronal Cell, 0.2 µM) 51%; (Human Neuronal Cell, 1 µM) 43%.

Turning to “TTCTGTATACACCATCCC (sugars l1 d11 l1 d3 l2, PS)”, the target mRNA inhibition (Human Neuronal Cell, 7.5 µM) came to 54%.

For TTTATCTCATGACCAC (sugars l2 d10 l4, PS), the target mRNA inhibition reads like this: (Human Neuronal Cell, 0.2 µM) 53%; (Human Neuronal Cell, 1 µM) 63%.

In the case of “TACTCTGCAATACACCA (sugars l2 d11 l4, PS)”, the target mRNA inhibition (Human Neuronal Cell, 0.2 µM) stood at 57% and the target mRNA inhibition (Human Neuronal Cell, 1 µM) came to 71%.

For “TAAAATTATTTATACACCA (sugars lddlllddddddldlllll, PS)”, under “Human Neuronal Cell, 7.5 µM”, the target mRNA inhibition turned out to be 30%.

For “TCTTTCCATTTATTTCCAT (sugars l2 d3 l1 d11 l2, PS)”, the target mRNA inhibition (Human Neuronal Cell, 7.5 µM) stood at 54%.

As for “AAATCTCAACTACCATTTTT (sugars ldddldlddddddldlddll, PS)”, the target mRNA inhibition (Human Neuronal Cell, 7.5 µM) was 41%.

In the case of “TTTCCATTTATTTCCATTTA (sugars lddlddlddddddddlddll, PS)”, the target mRNA inhibition (Human Neuronal Cell, 7.5 µM) turned out to be 61%.

Take TTACTCTGCAATACAC (sugars l3 d10 l3, PS): the target mRNA inhibition is, setting by setting: (Human Neuronal Cell, 0.2 µM) 46%; (Human Neuronal Cell, 1 µM) 61%.

For TTCAACCCTAATCACT (sugars l4 d10 l2, PS), the target mRNA inhibition is, setting by setting: (Human Neuronal Cell, 0.2 µM) 39%; (Human Neuronal Cell, 1 µM) 50%.

Take “CTGTTTATACCCTTTCCA (sugars l1 d12 l1 d2 l2, PS)”: the target mRNA inhibition (Human Neuronal Cell, 7.5 µM) came to 58%.

Regarding TACATCTCATACTTGC (sugars l2 d11 l3, PS), under setting [1], the target mRNA inhibition is 96.5%.

Take “ATATTGATTCAATTCCC (sugars l1 d2 l1 d7 l6, PS)”: the target mRNA inhibition (Human Neuronal Cell, 7.5 µM) worked out at 51%.

On to TCACCTAATAGCACCA (sugars l2 d10 l4, PS), for which the target mRNA inhibition turned out to be 60% (Human Neuronal Cell, 0.2 µM) and 69% (Human Neuronal Cell, 1 µM).

For TATAGCCATTCTATCT (sugars l4 d10 l2, PS), the target mRNA inhibition was found to be 61% (Human Neuronal Cell, 0.2 µM) and 67% (Human Neuronal Cell, 1 µM).

With “AATTTTTTTCTTACTATCTT (sugars lldllldddddddddldlll, PS)”, for the setting “Human Neuronal Cell, 7.5 µM”, the target mRNA inhibition stood at 57%.

For “TTTTTTTCTTACTATCTTCA (sugars l1 d14 l1 d2 l2, PS)”, where the note is “Human Neuronal Cell, 7.5 µM”, the target mRNA inhibition came out at 17%.

With TTTCTTACTATCTTCA (sugars l4 d10 l2, PS), the target mRNA inhibition came out at 53% (Human Neuronal Cell, 0.2 µM) and 61% (Human Neuronal Cell, 1 µM).

In the case of TACATATTGTACTTCT (sugars l4 d10 l2, PS), the target mRNA inhibition runs as follows: (Human Neuronal Cell, 0.2 µM) 18%; (Human Neuronal Cell, 1 µM) 23%.

As for “TTTATTTCCATTTATTTTCA (sugars ldldddddddddddlddlll, PS)”, where the note is “Human Neuronal Cell, 7.5 µM”, the target mRNA inhibition is 60%.

“TTATAGCCATTCTATCT (sugars l1 d11 l2 d1 l2, PS)”: for the setting “Human Neuronal Cell, 7.5 µM”, the target mRNA inhibition amounted to 40%.

“GTTTATACCCTTTCCAAT (sugars ldddlddddddddldlll, PS)”: where the note is “Human Neuronal Cell, 7.5 µM”, the target mRNA inhibition was found to be 56%.

Regarding “TCTTTCCATTTATTTCCATT (sugars l2 d14 l1 d1 l2, PS)”, the target mRNA inhibition (Human Neuronal Cell, 7.5 µM) turned out to be 46%.

Consider “GTTTCCATCTACTATTAAT (sugars ldldddddddddlldddll, PS)”, for which, under “Human Neuronal Cell, 7.5 µM”, the target mRNA inhibition came to 51%.

With “TCTTTCCATTTATTTCCA (sugars l4 d12 l2, PS)”, the target mRNA inhibition was 53% (Human Neuronal Cell, 0.2 µM) and 60% (Human Neuronal Cell, 1 µM).

In the case of ACCACTGATTTCCTTA (sugars l2 d10 l4, PS), the target mRNA inhibition by setting is: (Human Neuronal Cell, 0.2 µM) 50%; (Human Neuronal Cell, 1 µM) 63%.

As to “TTTACACTTAATTATACTTC (sugars lllddldddddddllldlll, PS)”, the target mRNA inhibition (Human Neuronal Cell, 7.5 µM) was determined as 22%.

For the sequence “CAACATTATTAACCACCTT (sugars l3 d1 l1 d11 l3, PS)”, under “Human Neuronal Cell, 7.5 µM”, the target mRNA inhibition came to 61%.

Regarding “TTGATTCAATTCCCTTA (sugars lddlldddddddlldll, PS)”, the target mRNA inhibition (Human Neuronal Cell, 7.5 µM) came to 66%.

For the sequence “ATCATTTCATATTACTA (sugars l3 d11 l3, PS)”, the target mRNA inhibition (Human Neuronal Cell, 0.2 µM) was determined as 43% and the target mRNA inhibition (Human Neuronal Cell, 1 µM) amounted to 56%.

On to GACCACACTTTCTACC (sugars l2 d12 l2, PS), for which the target mRNA inhibition was 18% (Human Neuronal Cell, 0.2 µM) and 42% (Human Neuronal Cell, 1 µM).

Take AAGATCATTCTCAACA (sugars l4 d10 l2, PS): the target mRNA inhibition was found to be 60% (Human Neuronal Cell, 0.2 µM) and 67% (Human Neuronal Cell, 1 µM).

As for CTCTTTAGATTCATCC (sugars l4 d10 l2, PS), the target mRNA inhibition by setting is: (Human Neuronal Cell, 0.2 µM) 56%; (Human Neuronal Cell, 1 µM) 48%.

For “TTCTGTATACACCATCCC (sugars l1 d15 l2, PS)”, where the note is “Human Neuronal Cell, 7.5 µM”, the target mRNA inhibition amounted to 58%.

“AGCATTCAACCCTAATC (sugars l4 d11 l2, PS)”: the target mRNA inhibition was determined as 52% (Human Neuronal Cell, 0.2 µM) and 50% (Human Neuronal Cell, 1 µM).

With ATTCAACCCTAATCAC (sugars l2 d10 l4, PS), the target mRNA inhibition was 16% (Human Neuronal Cell, 0.2 µM) and 26% (Human Neuronal Cell, 1 µM).

Turning to “TACTCTGCAATACACCA (sugars l2 d10 l1 d2 l2, PS)”, the target mRNA inhibition (Human Neuronal Cell, 7.5 µM) amounted to 61%.

On to “AAAATCTCAACTACCATTT (sugars lddddlddddddlllldll, PS)”, for which the target mRNA inhibition (Human Neuronal Cell, 7.5 µM) turned out to be 45%.

Turning to “TGTTTCCATCTACTATTA (sugars l1 d4 l1 d8 l4, PS)”, the target mRNA inhibition (Human Neuronal Cell, 7.5 µM) was determined as 67%.

As to TCATCCCTCCAAGAAA (sugars l2 d12 l2, PS), the target mRNA inhibition was -16% (Human Neuronal Cell, 0.2 µM); -28% (Human Neuronal Cell, 1 µM); -48% (Human Neuronal Cell, 5 µM).

For “GAATCTTCTAATTCCAC (sugars l2 d11 l4, PS)”, the target mRNA inhibition (Human Neuronal Cell, 0.2 µM) was 29% and the target mRNA inhibition (Human Neuronal Cell, 1 µM) was 31%.

CTTTAATGCTTCTAAC (sugars l2 d10 l4, PS): the target mRNA inhibition is, setting by setting: (Human Neuronal Cell, 0.2 µM) -3%; (Human Neuronal Cell, 1 µM) 26%.

Take “CTAACTGTTTCTCAATT (sugars l3 d11 l3, PS)”: the target mRNA inhibition (Human Neuronal Cell, 0.2 µM) was determined as 29% and the target mRNA inhibition (Human Neuronal Cell, 1 µM) is 32%.

Consider GCTCCCAAACAACTAA (sugars l2 d12 l2, PS), for which the target mRNA inhibition worked out at 36% (Human Neuronal Cell, 0.2 µM) and 72% (Human Neuronal Cell, 1 µM).
